Test results as given in US4698352A, “4-oxo-1,4-dihydronicotinic acid derivatives, salts thereof, and antibacterial agents containing the same” (Toyama Chemical Co., Ltd., priority 1982, dated 1987).
Values after ≈ are worked out from the molar mass of the structure shown. Read-outs that look alike come from different tables or passages of the source.

Experiments:
Test in all cases: Antibacterial activity (MIC), agar dilution
Type in all cases: cell-based
Aci. antitratus A-6 = details: 20 h, Aci. antitratus A-6; 10^6 cells per ml; 37° C., 20 hours; read-out: MIC
Text: (§1) The amount of bacteria inoculated was 10^4 cells per plate (10^6 cells per ml).

E. coli NIHJ JC-2 = details: Escherichia coli, NIHJJC2, 20 h
Text: as §1

E. coli TK-111 = details: Escherichia coli, TK111, 20 h, E. coli TK-111; 10^6 cells per ml; 37° C., 20 hours; read-out: MIC
Text: as §1

Ent. cloacae IID977 = details: Enterobacter cloacae, IID977, 20 h
Text: as §1

Kl. pneumoniae Y-41 = details: Klebsiella pneumoniae, Y41, 10^6 cells per ml, 37° C., 20 hours, read-out: MIC
Text: as §1

Kl. pneumoniae Y-50 = details: Klebsiella pneumoniae, Y50, 20 h, 10^6 cells per ml, 37° C., read-out: MIC
Text: as §1

Pro. mirabilis T-111 = details: Proteus mirabilis, 37° C.
Text: as §1

Pro. morganii T-216 = details: Morganella morganii, 37° C.
Text: as §1

Pro. vulgaris GN3027 = details: Proteus vulgaris, GN3027, 20 h, Pro. vulgaris GN3027; 10^6 cells per ml; 37° C., 20 hours; read-out: MIC
Text: as §1

Ps. aeruginosa IFO3445 = details: Pseudomonas aeruginosa; Ps. aeruginosa IFO3445; 10^6 cells per ml; 37° C., 20 hours; read-out: MIC
Text: as §1

Ps. aeruginosa S-68 = details: Pseudomonas aeruginosa, S68; Ps. aeruginosa S-68; 10^6 cells per ml; 37° C., 20 hours; read-out: MIC
Text: as §1

St. aureus FDA209P = details: Staphylococcus aureus, FDA209P, 20 h
Text: as §1

E. coli TK-3* = details: Escherichia coli, 20 h
Text: as §1
(§2) * Penicillinase-producing bacteria

Kl. pneumoniae Y-4* = details: Klebsiella pneumoniae, 20 h, Kl. pneumoniae Y-4, penicillinase-producing; 10^6 cells per ml; read-out: MIC
Text: as §1, §2

Ps. aeruginosa GN3379* = details: Pseudomonas aeruginosa, 20 h; Ps. aeruginosa GN3379, penicillinase-producing; 10^6 cells per ml; read-out: MIC
Text: as §1, §2

St. aureus F-137* = details: Staphylococcus aureus, 20 h, St. aureus F-137, penicillinase-producing; 10^6 cells per ml; read-out: MIC
Text: as §1, §2

E. coli GN5482** = details: Escherichia coli, 20 h; E. coli GN5482, cephalospolinase-producing; 10^6 cells per ml; read-out: MIC
Text: as §1
(§3) ** Cephalospolinase-producing bacteria

Pro. vulgaris GN76** = details: Proteus vulgaris
Text: as §1, §3

Ps. aeruginosa GN918** = details: Pseudomonas aeruginosa, Ps. aeruginosa GN918, cephalospolinase-producing, 10^6 cells per ml
Text: as §1, §3

[1] = T111, 10^6 cells per ml, 20 hours, read-out: MIC
[2] = 20 h, Pro. vulgaris GN76, cephalospolinase-producing, 10^6 cells per ml, read-out: MIC
[3] = E. coli NIHJ JC-2, 10^6 cells per ml, 37° C., 20 hours, read-out: MIC
[4] = Ent. cloacae IID977, 10^6 cells per ml, 37° C., 20 hours, read-out: MIC
[5] = T216, 10^6 cells per ml, 20 hours, read-out: MIC
[6] = St. aureus FDA209P, 10^6 cells per ml, 37° C., 20 hours, read-out: MIC
[7] = E. coli TK-3, penicillinase-producing, 10^6 cells per ml, read-out: MIC

Nc1ccc(-c2cc(=O)c(C(=O)O)cn2-c2ccc(O)cc2)cc1
MIC (Aci. antitratus A-6): 25 µg/mL (≈ 77.6 µM)
MIC (E. coli NIHJ JC-2): 3.13 µg/mL (≈ 9.71 µM)
MIC (E. coli TK-111): 0.78 µg/mL (≈ 2.42 µM)
MIC (Ent. cloacae IID977): 12.5 µg/mL (≈ 38.8 µM)
MIC (Kl. pneumoniae Y-41): 12.5 µg/mL (≈ 38.8 µM)
MIC (Kl. pneumoniae Y-50): 3.13 µg/mL (≈ 9.71 µM)
MIC (Pro. mirabilis T-111; [1]): 25 µg/mL (≈ 77.6 µM)
MIC (Pro. morganii T-216; T216, 20 h, 10^6 cells per ml): 3.13 µg/mL (≈ 9.71 µM)
MIC (Pro. vulgaris GN3027): 0.39 µg/mL (≈ 1.21 µM)
MIC (Ps. aeruginosa IFO3445): 25 µg/mL (≈ 77.6 µM)
MIC (Ps. aeruginosa S-68): 25 µg/mL (≈ 77.6 µM)
MIC (St. aureus FDA209P): 3.13 µg/mL (≈ 9.71 µM)
MIC (E. coli TK-3*): 3.13 µg/mL (≈ 9.71 µM)
MIC (Kl. pneumoniae Y-4*): 12.5 µg/mL (≈ 38.8 µM)
MIC (Ps. aeruginosa GN3379*): 25 µg/mL (≈ 77.6 µM)
MIC (St. aureus F-137*): 6.25 µg/mL (≈ 19.4 µM)
MIC (E. coli GN5482**): 0.1 µg/mL (≈ 0.31 µM)
MIC (Pro. vulgaris GN76**; [2]): 1.56 µg/mL (≈ 4.84 µM)
MIC (Ps. aeruginosa GN918**; 20 h, read-out: MIC): 25 µg/mL (≈ 77.6 µM)

CN(C)c1ccc(-c2cc(=O)c(C(=O)O)cn2-c2cccc3c(O)cccc23)cc1
MIC (Aci. antitratus A-6): 0.39 µg/mL (≈ 0.974 µM)
MIC (E. coli NIHJ JC-2; [3]): 0.39 µg/mL (≈ 0.974 µM)
MIC (E. coli TK-111): ≤ 0.05 µg/mL
MIC (Ent. cloacae IID977; [4]): 1.56 µg/mL (≈ 3.9 µM)
MIC (Kl. pneumoniae Y-41): 6.25 µg/mL (≈ 15.6 µM)
MIC (Kl. pneumoniae Y-50): 0.78 µg/mL (≈ 1.95 µM)
MIC (Pro. mirabilis T-111; [1]): 3.13 µg/mL (≈ 7.82 µM)
MIC (Pro. morganii T-216; [5]): 3.13 µg/mL (≈ 7.82 µM)
MIC (Pro. vulgaris GN3027): 1.56 µg/mL (≈ 3.9 µM)
MIC (Ps. aeruginosa IFO3445): 12.5 µg/mL (≈ 31.2 µM)
MIC (Ps. aeruginosa S-68): 12.5 µg/mL (≈ 31.2 µM)
MIC (St. aureus FDA209P; [6]): 0.1 µg/mL (≈ 0.25 µM)
MIC (E. coli TK-3*; [7]): 1.56 µg/mL (≈ 3.9 µM)
MIC (Kl. pneumoniae Y-4*): 6.25 µg/mL (≈ 15.6 µM)
MIC (Ps. aeruginosa GN3379*): > 100 µg/mL
MIC (St. aureus F-137*): ≤ 0.05 µg/mL
MIC (E. coli GN5482**): ≤ 0.05 µg/mL
MIC (Pro. vulgaris GN76**; [2]): 1.56 µg/mL (≈ 3.9 µM)
MIC (Ps. aeruginosa GN918**; GN918, 20 h): 6.25 µg/mL (≈ 15.6 µM)

O=C(O)c1cn(-c2ccc(F)cc2)c(-c2sccc2-c2ccc([N+](=O)[O-])cc2)cc1=O
MIC (Aci. antitratus A-6): 0.78 µg/mL (≈ 1.79 µM)
MIC (E. coli NIHJ JC-2): 1.56 µg/mL (≈ 3.57 µM)
MIC (E. coli TK-111): 0.2 µg/mL (≈ 0.458 µM)
MIC (Ent. cloacae IID977; [4]): 3.13 µg/mL (≈ 7.17 µM)
MIC (Kl. pneumoniae Y-41): 6.25 µg/mL (≈ 14.3 µM)
MIC (Kl. pneumoniae Y-50): 1.56 µg/mL (≈ 3.57 µM)
MIC (Pro. mirabilis T-111; T111, 20 h, 10^6 cells per ml): 6.25 µg/mL (≈ 14.3 µM)
MIC (Pro. morganii T-216; T216, 20 h, 10^6 cells per ml): 1.56 µg/mL (≈ 3.57 µM)
MIC (Pro. vulgaris GN3027): 0.39 µg/mL (≈ 0.894 µM)
MIC (Ps. aeruginosa IFO3445): 12.5 µg/mL (≈ 28.6 µM)
MIC (Ps. aeruginosa S-68): 12.5 µg/mL (≈ 28.6 µM)
MIC (St. aureus FDA209P; [6]): 0.28 µg/mL (≈ 0.642 µM)
MIC (E. coli TK-3*; [7]): 3.13 µg/mL (≈ 7.17 µM)
MIC (Kl. pneumoniae Y-4*): 6.25 µg/mL (≈ 14.3 µM)
MIC (Ps. aeruginosa GN3379*): 25 µg/mL (≈ 57.3 µM)
MIC (St. aureus F-137*): 0.1 µg/mL (≈ 0.229 µM)
MIC (E. coli GN5482**): 0.2 µg/mL (≈ 0.458 µM)
MIC (Pro. vulgaris GN76**; [2]): 3.13 µg/mL (≈ 7.17 µM)
MIC (Ps. aeruginosa GN918**; 20 h, read-out: MIC): 12.5 µg/mL (≈ 28.6 µM)

Cn1ccc2cc(-c3cc(=O)c(C(=O)O)cn3-c3ccc(F)cc3)ccc21
MIC (Aci. antitratus A-6): 0.1 µg/mL (≈ 0.276 µM)
MIC (E. coli NIHJ JC-2; [3]): 0.39 µg/mL (≈ 1.08 µM)
MIC (E. coli TK-111): 0.1 µg/mL (≈ 0.276 µM)
MIC (Ent. cloacae IID977; [4]): 1.56 µg/mL (≈ 4.31 µM)
MIC (Kl. pneumoniae Y-41): 3.13 µg/mL (≈ 8.64 µM)
MIC (Kl. pneumoniae Y-50): 0.78 µg/mL (≈ 2.15 µM)
MIC (Pro. mirabilis T-111; T111, 20 h, 10^6 cells per ml): 3.13 µg/mL (≈ 8.64 µM)
MIC (Pro. morganii T-216; [5]): 1.56 µg/mL (≈ 4.31 µM)
MIC (Pro. vulgaris GN3027): 0.2 µg/mL (≈ 0.552 µM)
MIC (Ps. aeruginosa IFO3445): 12.5 µg/mL (≈ 34.5 µM)
MIC (Ps. aeruginosa S-68): 12.5 µg/mL (≈ 34.5 µM)
MIC (St. aureus FDA209P; [6]): 0.39 µg/mL (≈ 1.08 µM)
MIC (E. coli TK-3*; [7]): 1.56 µg/mL (≈ 4.31 µM)
MIC (Kl. pneumoniae Y-4*): 3.13 µg/mL (≈ 8.64 µM)
MIC (Ps. aeruginosa GN3379*): 25 µg/mL (≈ 69 µM)
MIC (St. aureus F-137*): 0.39 µg/mL (≈ 1.08 µM)
MIC (E. coli GN5482**): ≤ 0.05 µg/mL
MIC (Pro. vulgaris GN76**; [2]): 0.78 µg/mL (≈ 2.15 µM)
MIC (Ps. aeruginosa GN918**; 20 h, read-out: MIC): 0.78 µg/mL (≈ 2.15 µM)

CN1CCOc2cc(-c3cc(=O)c(C(=O)O)cn3-c3ccc(O)cc3)ccc21
MIC (Aci. antitratus A-6): 0.78 µg/mL (≈ 2.06 µM)
MIC (E. coli NIHJ JC-2; [3]): 0.39 µg/mL (≈ 1.03 µM)
MIC (E. coli TK-111): 0.2 µg/mL (≈ 0.529 µM)
MIC (Ent. cloacae IID977; [4]): 1.56 µg/mL (≈ 4.12 µM)
MIC (Kl. pneumoniae Y-41): 3.13 µg/mL (≈ 8.27 µM)
MIC (Kl. pneumoniae Y-50): 0.78 µg/mL (≈ 2.06 µM)
MIC (Pro. mirabilis T-111; T111, 20 h, 10^6 cells per ml): 3.13 µg/mL (≈ 8.27 µM)
MIC (Pro. morganii T-216; [5]): 1.56 µg/mL (≈ 4.12 µM)
MIC (Pro. vulgaris GN3027): 0.39 µg/mL (≈ 1.03 µM)
MIC (Ps. aeruginosa IFO3445): 12.5 µg/mL (≈ 33 µM)
MIC (Ps. aeruginosa S-68): 6.25 µg/mL (≈ 16.5 µM)
MIC (St. aureus FDA209P; [6]): 0.39 µg/mL (≈ 1.03 µM)
MIC (E. coli TK-3*; [7]): 0.78 µg/mL (≈ 2.06 µM)
MIC (Kl. pneumoniae Y-4*): 3.13 µg/mL (≈ 8.27 µM)
MIC (Ps. aeruginosa GN3379*): 12.5 µg/mL (≈ 33 µM)
MIC (St. aureus F-137*): 0.39 µg/mL (≈ 1.03 µM)
MIC (E. coli GN5482**): ≤ 0.05 µg/mL
MIC (Pro. vulgaris GN76**; GN76, 20 h): 3.13 µg/mL (≈ 8.27 µM)
MIC (Ps. aeruginosa GN918**; 20 h, read-out: MIC): 6.25 µg/mL (≈ 16.5 µM)

Cc1cc(O)ccc1-n1cc(C(=O)O)c(=O)cc1C1CCCC1
MIC (Aci. antitratus A-6): 0.78 µg/mL (≈ 2.49 µM)
MIC (E. coli NIHJ JC-2; [3]): 0.78 µg/mL (≈ 2.49 µM)
MIC (E. coli TK-111): 0.39 µg/mL (≈ 1.24 µM)
MIC (Ent. cloacae IID977; [4]): 1.56 µg/mL (≈ 4.98 µM)
MIC (Kl. pneumoniae Y-41): 3.13 µg/mL (≈ 9.99 µM)
MIC (Kl. pneumoniae Y-50): 0.78 µg/mL (≈ 2.49 µM)
MIC (Pro. mirabilis T-111; T111, 20 h, 10^6 cells per ml): 3.13 µg/mL (≈ 9.99 µM)
MIC (Pro. morganii T-216; T216, 20 h, 10^6 cells per ml): 3.13 µg/mL (≈ 9.99 µM)
MIC (Pro. vulgaris GN3027): ≤ 0.05 µg/mL
MIC (Ps. aeruginosa IFO3445): 12.5 µg/mL (≈ 39.9 µM)
MIC (Ps. aeruginosa S-68): 12.5 µg/mL (≈ 39.9 µM)
MIC (St. aureus FDA209P; [6]): 0.78 µg/mL (≈ 2.49 µM)
MIC (E. coli TK-3*; [7]): 1.56 µg/mL (≈ 4.98 µM)
MIC (Kl. pneumoniae Y-4*): 6.25 µg/mL (≈ 19.9 µM)
MIC (Ps. aeruginosa GN3379*): 25 µg/mL (≈ 79.8 µM)
MIC (St. aureus F-137*): 0.39 µg/mL (≈ 1.24 µM)
MIC (E. coli GN5482**): 0.2 µg/mL (≈ 0.638 µM)
MIC (Pro. vulgaris GN76**; [2]): 0.78 µg/mL (≈ 2.49 µM)
MIC (Ps. aeruginosa GN918**; GN918, 20 h): 3.13 µg/mL (≈ 9.99 µM)
